According to ChEMBL document CHEMBL1125706, “An approach to the design of receptor-type-selective non-peptide antagonists of peptidergic receptors: delta opioid antagonists” (J Med Chem, 1991):
Non-standard residues stand in square brackets, D forms with d. Residues, ends and D or L forms follow the SMILES beside them. *: point of attachment. Tyr(Nα,Nα-allyl2) = C=CCN(CC=C)[C@@H](Cc1ccc(O)cc1)C(=O)*; Aib = CC(C)(N)C(=O)O

What was measured:
[1] = biological target: T1, Opioid receptors; delta & kappa (Homo sapiens) (UniProt P41145+P41143); assay: Ke selectivity ratio (kappa/delta) of the compound; format: protein assay
T1 sequence (P41143 whole entry, looked up): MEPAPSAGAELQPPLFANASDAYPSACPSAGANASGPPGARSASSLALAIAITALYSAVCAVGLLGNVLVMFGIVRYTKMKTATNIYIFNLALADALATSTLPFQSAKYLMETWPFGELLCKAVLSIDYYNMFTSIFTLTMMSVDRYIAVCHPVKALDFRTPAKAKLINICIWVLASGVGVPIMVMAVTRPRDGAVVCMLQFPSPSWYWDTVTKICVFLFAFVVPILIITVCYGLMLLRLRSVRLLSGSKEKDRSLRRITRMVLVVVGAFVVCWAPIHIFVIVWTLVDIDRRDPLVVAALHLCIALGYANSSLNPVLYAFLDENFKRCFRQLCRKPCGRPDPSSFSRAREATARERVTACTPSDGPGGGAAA
T1 sequence (P41145 whole entry, looked up): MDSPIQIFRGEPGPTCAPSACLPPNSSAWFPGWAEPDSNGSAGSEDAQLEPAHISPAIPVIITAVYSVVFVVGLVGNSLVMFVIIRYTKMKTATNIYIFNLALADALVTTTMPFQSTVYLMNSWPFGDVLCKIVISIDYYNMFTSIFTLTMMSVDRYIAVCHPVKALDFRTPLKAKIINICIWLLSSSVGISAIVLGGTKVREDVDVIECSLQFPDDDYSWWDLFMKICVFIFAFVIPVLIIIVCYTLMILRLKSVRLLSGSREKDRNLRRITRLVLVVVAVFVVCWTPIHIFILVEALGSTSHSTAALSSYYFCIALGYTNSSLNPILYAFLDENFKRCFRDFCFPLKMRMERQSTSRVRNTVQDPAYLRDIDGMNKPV

[2] = biological target: T2, Opioid receptors; mu & delta (Homo sapiens) (UniProt P41143+P35372); assay: Ke selectivity ratio (mu/delta) of the compound; format: protein assay
T2 sequence (P35372 whole entry, looked up): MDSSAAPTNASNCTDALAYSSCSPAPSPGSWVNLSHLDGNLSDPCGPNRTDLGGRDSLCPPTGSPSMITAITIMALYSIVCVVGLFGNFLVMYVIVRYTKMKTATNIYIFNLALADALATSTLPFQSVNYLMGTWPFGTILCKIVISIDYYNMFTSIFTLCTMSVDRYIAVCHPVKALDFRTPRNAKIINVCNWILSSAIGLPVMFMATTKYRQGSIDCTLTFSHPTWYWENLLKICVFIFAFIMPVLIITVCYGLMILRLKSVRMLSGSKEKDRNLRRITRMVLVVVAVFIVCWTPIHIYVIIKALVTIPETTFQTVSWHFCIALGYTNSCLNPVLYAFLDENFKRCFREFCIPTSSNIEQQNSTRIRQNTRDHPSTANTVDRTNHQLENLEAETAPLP
T2 sequence (P41143 whole entry, looked up): as the sequence (P41143 whole entry, looked up) above

[3] = biological target: T2, Opioid receptors; mu & delta (Homo sapiens); assay: Ki selectivity ratio (mu/delta) of the compound; format: protein assay
[4] = biological target: T1, Opioid receptors; delta & kappa (Homo sapiens); assay: Ki selectivity ratio (kappa/delta) of the compound; format: protein assay
[5] = biological target: Kappa-type opioid receptor (Cavia porcellus, UniProt P41144); assay: Compound was evaluated for binding affinity of Opioid receptor kappa 1 in guinea pig brain membranes; format: cell membranes, Membrane
Chain of Kappa-type opioid receptor (P41144 whole entry): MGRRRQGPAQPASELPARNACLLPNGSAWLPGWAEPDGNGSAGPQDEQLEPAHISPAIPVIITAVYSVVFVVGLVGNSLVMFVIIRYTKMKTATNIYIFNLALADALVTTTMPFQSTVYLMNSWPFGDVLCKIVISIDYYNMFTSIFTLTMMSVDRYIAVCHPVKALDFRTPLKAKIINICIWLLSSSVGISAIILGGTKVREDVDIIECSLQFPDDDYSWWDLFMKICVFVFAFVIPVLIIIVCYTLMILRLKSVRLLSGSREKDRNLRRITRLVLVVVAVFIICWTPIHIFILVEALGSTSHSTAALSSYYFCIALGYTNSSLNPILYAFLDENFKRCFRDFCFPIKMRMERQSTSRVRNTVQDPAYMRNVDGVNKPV

[6] = biological target: Delta-type opioid receptor (Mus musculus) (UniProt P32300); assay: Compound was evaluated for antagonist potency in the mouse vas deferens preparation using [D-Ala2,D-Leu5]enkephalin (Opioid receptor delta 1); format: functional
Chain of Delta-type opioid receptor (Mus musculus) (P32300 whole entry): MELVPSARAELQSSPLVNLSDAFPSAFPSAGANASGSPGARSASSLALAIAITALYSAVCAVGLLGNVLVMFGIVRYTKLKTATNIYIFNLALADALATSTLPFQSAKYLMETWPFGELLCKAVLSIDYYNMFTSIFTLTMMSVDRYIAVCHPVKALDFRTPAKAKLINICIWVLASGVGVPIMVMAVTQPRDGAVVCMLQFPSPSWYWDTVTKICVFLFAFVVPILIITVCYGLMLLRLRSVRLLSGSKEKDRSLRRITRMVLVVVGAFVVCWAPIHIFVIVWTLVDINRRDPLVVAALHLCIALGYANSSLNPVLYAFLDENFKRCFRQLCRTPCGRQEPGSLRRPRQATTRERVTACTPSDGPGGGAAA

SMILES	Selectivity ratio [1]	Selectivity ratio [2]	Selectivity ratio [3]	Selectivity ratio [4]	Ki [5] [nM]	Ke [6] [nM]
C=CCN(CC=C)[C@@H](Cc1ccc(O)cc1)C(=O)NC(C)(C)C(=O)NC(C)(C)C(=O)N[C@@H](Cc1ccccc1)C(=O)N[C@@H](CC(C)C)C(=O)O ({Tyr(Nα,Nα-allyl2)}-[Aib][Aib]FL-OH)	> 18	> 24	> 29	> 29	–	–
Oc1ccc2c3c1O[C@H]1c4oc5ccccc5c4C[C@@]4(O)[C@@H](C2)N(CC2CC2)CC[C@]314 [NALTRIBEN]	–	–	–	–	152	0.27
